Laboratory results published in ChEMBL document CHEMBL1275512, “Comparative in vitro activities of the investigational fluoroquinolone DC-159a and other antimicrobial agents against human mycoplasmas and ureaplasmas” (2008).
In brackets after ≈: the same amount, converted by molar mass. Activity calls are given as the source filed them. No cut-off for these calls is given here.

What was measured:
Metamycoplasma hominis = assay: Antimicrobial activity against Mycoplasma hominis by broth microdilution method; format: functional
Mycoplasma genitalium = assay: Antimicrobial activity against Mycoplasma genitalium by broth microdilution method; format: functional; details: Mycoplasmoides genitalium
[1] = tested on: Mycoplasmoides pneumoniae; assay: Antimicrobial activity against Mycoplasma pneumoniae by broth microdilution method; format: functional
Mycoplasma fermentans = assay: Antimicrobial activity against Mycoplasma fermentans by broth microdilution method; format: functional; details: Mycoplasmopsis fermentans
Ureaplasma urealyticum = assay: Antimicrobial activity against Ureaplasma urealyticum by broth microdilution method; format: functional
Ureaplasma parvum [2] = assay: Antimicrobial activity against fluoroquinolone-resistant Ureaplasma parvum by broth microdilution method; format: functional
[3] = tested on: Mycoplasmoides pneumoniae; assay: Bactericidal activity against Mycoplasma pneumoniae at MIC after 48 hrs; format: functional, organism-based
Ureaplasma parvum [4] = assay: Antimicrobial activity against Ureaplasma parvum by broth microdilution method; format: functional
[5] = tested on: Mycoplasmoides pneumoniae; assay: Bactericidal activity against Mycoplasma pneumoniae assessed as log reduction in bacterial load at MIC after 24 hrs; format: functional
[6] = tested on: Mycoplasmoides pneumoniae; assay: Bactericidal activity against Mycoplasma pneumoniae assessed as log reduction in bacterial load at MIC after 72 hrs; format: functional
[7] = tested on: Mycoplasmoides pneumoniae; assay: Bactericidal activity against Mycoplasma pneumoniae at 8 X MIC after 120 hrs; format: functional, organism-based

MIC [1]	SMILES	MIC50 (Metamycoplasma hominis)	MIC90 (Metamycoplasma hominis)	MIC (Mycoplasma genitalium)	MIC50 [1]	MIC90 [1]	MIC50 (Mycoplasma fermentans)	MIC90 (Mycoplasma fermentans)	MIC (Ureaplasma urealyticum)	MIC50 (Ureaplasma urealyticum)	MIC90 (Ureaplasma urealyticum)	MIC (Ureaplasma parvum [2])	Activity [3]	MIC50 (Ureaplasma parvum [4])	MIC90 (Ureaplasma parvum [4])	MIC (Ureaplasma parvum [4])	FC [5]	FC [6]	Activity [7]
	COc1c(N2C[C@@H]3CCCN[C@@H]3C2)c(F)cc2c(=O)c(C(=O)O)cn(C3CC3)c12 [MOXIFLOXACIN]	0.063 µg/mL (≈ 0.157 µM)	0.063 µg/mL (≈ 0.157 µM)	0.016 µg/mL (≈ 0.0399 µM)	0.125 µg/mL (≈ 0.311 µM)	0.125 µg/mL (≈ 0.311 µM)	0.032 µg/mL (≈ 0.0797 µM)	0.063 µg/mL (≈ 0.157 µM)	0.25 µg/mL (≈ 0.623 µM)	0.25 µg/mL (≈ 0.623 µM)	0.5 µg/mL (≈ 1.25 µM)	4 µg/mL (≈ 9.96 µM)	Active	0.5 µg/mL (≈ 1.25 µM)	2 µg/mL (≈ 4.98 µM)				
≤ 0.001 µg/mL	CC[C@H]1OC(=O)[C@H](C)[C@@H](O[C@H]2C[C@@](C)(OC)[C@@H](O)[C@H](C)O2)[C@H](C)[C@@H](O[C@@H]2O[C@H](C)C[C@H](N(C)C)[C@H]2O)[C@](C)(O)C[C@@H](C)CN(C)[C@H](C)[C@@H](O)[C@]1(C)O [AZITHROMYCIN]			≤ 0.001 µg/mL	≤ 0.001 µg/mL	≤ 0.001 µg/mL				2 µg/mL (≈ 2.67 µM)	4 µg/mL (≈ 5.34 µM)			1 µg/mL (≈ 1.34 µM)	2 µg/mL (≈ 2.67 µM)				
	O=C(O)c1cn(C2CC2)c2cc(N3CCNCC3)c(F)cc2c1=O [CIPROFLOXACIN]	0.5 µg/mL (≈ 1.51 µM)	1 µg/mL (≈ 3.02 µM)	0.5 µg/mL (≈ 1.51 µM)	2 µg/mL (≈ 6.04 µM)	4 µg/mL (≈ 12.1 µM)	0.063 µg/mL (≈ 0.19 µM)	0.125 µg/mL (≈ 0.377 µM)		4 µg/mL (≈ 12.1 µM)	8 µg/mL (≈ 24.1 µM)	32 µg/mL (≈ 96.6 µM)		2 µg/mL (≈ 6.04 µM)	16 µg/mL (≈ 48.3 µM)				
	C[C@H]1c2cccc(O)c2C(=O)C2=C(O)[C@]3(O)C(=O)C(C(N)=O)=C(O)[C@@H](N(C)C)[C@@H]3[C@@H](O)[C@@H]21.O [DOXYCYCLINE]	2 µg/mL	8 µg/mL	0.032 µg/mL	0.25 µg/mL	0.5 µg/mL	0.25 µg/mL	1 µg/mL		0.125 µg/mL	0.5 µg/mL			0.125 µg/mL	2 µg/mL				
	C[C@H]1COc2c(N3CCN(C)CC3)c(F)cc3c(=O)c(C(=O)O)cn1c23.C[C@H]1COc2c(N3CCN(C)CC3)c(F)cc3c(=O)c(C(=O)O)cn1c23.O [LEVOFLOXACIN]	0.25 µg/mL	0.5 µg/mL	1 µg/mL	0.5 µg/mL	1 µg/mL	0.063 µg/mL	0.125 µg/mL		1 µg/mL	1 µg/mL	16 µg/mL		0.5 µg/mL	2 µg/mL	0.5 µg/mL			
	COc1c(N2CC3(CC3)[C@](C)(N)C2)c(F)cc2c(=O)c(C(=O)O)cn([C@@H]3C[C@@H]3F)c12	0.125 µg/mL (≈ 0.298 µM)	0.25 µg/mL (≈ 0.596 µM)	0.016 µg/mL (≈ 0.0381 µM)	0.063 µg/mL (≈ 0.15 µM)	0.063 µg/mL (≈ 0.15 µM)	0.016 µg/mL (≈ 0.0381 µM)	0.032 µg/mL (≈ 0.0763 µM)		0.5 µg/mL (≈ 1.19 µM)	1 µg/mL (≈ 2.38 µM)	4 µg/mL (≈ 9.54 µM)		0.5 µg/mL (≈ 1.19 µM)	2 µg/mL (≈ 4.77 µM)		3	3	
	CN(C)[C@@H]1C(O)=C(C(N)=O)C(=O)[C@@]2(O)C(O)=C3C(=O)c4c(O)cccc4[C@@](C)(O)[C@H]3C[C@@H]12 [TETRACYCLINE]	0.5 µg/mL (≈ 1.13 µM)	16 µg/mL (≈ 36 µM)	0.25 µg/mL (≈ 0.563 µM)	0.5 µg/mL (≈ 1.13 µM)	1 µg/mL (≈ 2.25 µM)	0.5 µg/mL (≈ 1.13 µM)	1 µg/mL (≈ 2.25 µM)		0.5 µg/mL (≈ 1.13 µM)	2 µg/mL (≈ 4.5 µM)			0.5 µg/mL (≈ 1.13 µM)	8 µg/mL (≈ 18 µM)				
	CC[C@H]1OC(=O)[C@H](C)[C@@H](O[C@H]2C[C@@](C)(OC)[C@@H](O)[C@H](C)O2)[C@H](C)[C@@H](O[C@@H]2O[C@H](C)C[C@H](N(C)C)[C@H]2O)[C@](C)(O)C[C@@H](C)C(=O)[C@H](C)[C@@H](O)[C@]1(C)O [ERYTHROMYCIN]	0.016 µg/mL (≈ 0.0218 µM)	0.032 µg/mL (≈ 0.0436 µM)	≤ 0.001 µg/mL	0.004 µg/mL (≈ 0.00545 µM)	0.004 µg/mL (≈ 0.00545 µM)	0.032 µg/mL (≈ 0.0436 µM)	0.125 µg/mL (≈ 0.17 µM)		2 µg/mL (≈ 2.73 µM)	4 µg/mL (≈ 5.45 µM)			1 µg/mL (≈ 1.36 µM)	4 µg/mL (≈ 5.45 µM)				Active
